Reference: ChEMBL document CHEMBL1137872, “Potent and selective P2-P3 ketoamide inhibitors of cathepsin K with good pharmacokinetic properties via favorable P1', P1, and/or P3 substitutions” (Bioorg Med Chem Lett, 2004)
Values after ≈ are worked out from the molar mass of the structure shown.

Experiments:
Cathepsin K = biological target: T1, Cathepsin K (Homo sapiens, UniProt P43235); experiment: Inhibition of 10 uM Cbz-Phe-Arg-AMC binding to human cathepsin K in fluorescence assay
T1 sequence (P43235 whole entry): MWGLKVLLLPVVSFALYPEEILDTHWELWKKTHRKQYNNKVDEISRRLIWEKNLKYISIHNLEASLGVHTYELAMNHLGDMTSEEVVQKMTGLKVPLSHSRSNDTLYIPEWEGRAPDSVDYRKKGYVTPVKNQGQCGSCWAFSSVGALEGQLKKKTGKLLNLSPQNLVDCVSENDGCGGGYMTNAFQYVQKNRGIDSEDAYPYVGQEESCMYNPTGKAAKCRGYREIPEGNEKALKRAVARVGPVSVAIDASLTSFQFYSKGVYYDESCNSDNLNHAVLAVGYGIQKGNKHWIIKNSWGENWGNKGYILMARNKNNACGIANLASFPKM

[1] = Equilibrium solubility in fasted state-simulated intestinal fluid was determined […]; assay type: ADME, Rattus norvegicus; conditions: read-out: FS-SIF
[2] = biological target: T2, Cathepsin (L and K) (Homo sapiens) (UniProt P43235+P07711); experiment: (§1) Relative binding to human cathepsins L and K; assay type: protein assay
Pro-cathepsin H = biological target: T3, Pro-cathepsin H (Homo sapiens, UniProt P09668); experiment: Inhibition of 50 uM L-Arg-beta-naphthalamide binding to human cathepsin H in fluorescence assay
T3 sequence (P09668 whole entry): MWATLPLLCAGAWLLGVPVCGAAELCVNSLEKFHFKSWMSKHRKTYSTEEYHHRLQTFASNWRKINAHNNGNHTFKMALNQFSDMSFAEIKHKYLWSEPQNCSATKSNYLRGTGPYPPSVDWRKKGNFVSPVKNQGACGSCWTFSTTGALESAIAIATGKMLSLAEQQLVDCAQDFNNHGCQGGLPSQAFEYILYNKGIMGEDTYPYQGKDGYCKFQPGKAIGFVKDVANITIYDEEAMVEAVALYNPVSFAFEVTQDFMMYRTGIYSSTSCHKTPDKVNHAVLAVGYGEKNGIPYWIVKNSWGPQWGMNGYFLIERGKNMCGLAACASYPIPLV

Cathepsin S = Cathepsin S (Homo sapiens, UniProt P25774); experiment: Inhibition of 10 uM Cbz-Val-Val-Arg-AMC binding to human cathepsin S in fluorescence assay
Cathepsin B = Cathepsin B (Homo sapiens, UniProt P07858); experiment: Inhibition of 10 uM Cbz-Phe-Arg-AMC binding to human cathepsin B in fluorescence assay
[3] = biological target: T2, Cathepsin (L and K) (Homo sapiens); experiment: as §1; assay type: protein assay; remark: listed apart in the source
[4] = biological target: Cathepsin (S and K) (Homo sapiens) (UniProt P25774+P43235); experiment: Relative binding to human cathepsins S and K; assay type: protein assay
Procathepsin L = Procathepsin L (Homo sapiens, UniProt P07711); experiment: Inhibition of 5 uM Cbz-Phe-Arg-AMC human cathepsin L in fluorescence assay
[5] = Steady state volume of distribution in rats; assay type: ADME, organism-based; conditions: rat, in vivo; read-out: Vss
[6] = Total clearance in rats; assay type: ADME, organism-based; conditions: rat, in vivo
[7] = Apparent permeability coefficient for apical to basolateral flux was determined by Madin-Darby canine kidney cell monolayer transport assay; assay type: ADME, cell-based, Canis lupus familiaris; conditions: dog, MDCK
[8] = Oral bioavailability in rat; assay type: ADME, organism-based; conditions: in vivo
[9] = Terminal half-life was determined in rats upon intravenous administration as a solution in 30% hydroxypropyl-beta-cyclodextrin, pH = 3.5; assay type: ADME, organism-based; conditions: rat, in vivo
[10] = biological target: T4, Pro-cathepsin H (Homo sapiens) (UniProt P09668); experiment: Relative binding to human cathepsins H and K
T4 sequence (whole entry): T3 sequence (P09668 whole entry)

[11] = biological target: Cathepsin (H and K) (Homo sapiens) (UniProt P09668+P43235); experiment: Relative binding affinity for human cathepsins H and K; assay type: protein assay
[12] = Terminal half-life was determined in rats upon intravenous administration as a solution in 30% hydroxypropyl-beta-cyclodextrin, pH = 5.1; assay type: ADME, organism-based; conditions: rat, in vivo
[13] = Terminal half-life was determined in rats upon intravenous administration as a solution in 40% hydroxypropyl-beta-cyclodextrin, pH = 5.1; assay type: ADME, organism-based; conditions: rat, in vivo

Chain of Cathepsin S (P25774 whole entry): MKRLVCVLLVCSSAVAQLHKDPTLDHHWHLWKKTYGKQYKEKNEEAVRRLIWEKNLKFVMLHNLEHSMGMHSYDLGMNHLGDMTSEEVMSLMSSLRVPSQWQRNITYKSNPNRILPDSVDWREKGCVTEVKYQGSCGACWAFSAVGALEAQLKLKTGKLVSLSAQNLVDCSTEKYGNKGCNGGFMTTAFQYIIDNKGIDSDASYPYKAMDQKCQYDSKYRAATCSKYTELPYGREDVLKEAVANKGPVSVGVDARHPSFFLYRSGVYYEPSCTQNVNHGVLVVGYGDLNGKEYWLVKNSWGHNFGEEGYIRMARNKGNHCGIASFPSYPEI
T2 sequence (P07711 whole entry, looked up, one chain of several): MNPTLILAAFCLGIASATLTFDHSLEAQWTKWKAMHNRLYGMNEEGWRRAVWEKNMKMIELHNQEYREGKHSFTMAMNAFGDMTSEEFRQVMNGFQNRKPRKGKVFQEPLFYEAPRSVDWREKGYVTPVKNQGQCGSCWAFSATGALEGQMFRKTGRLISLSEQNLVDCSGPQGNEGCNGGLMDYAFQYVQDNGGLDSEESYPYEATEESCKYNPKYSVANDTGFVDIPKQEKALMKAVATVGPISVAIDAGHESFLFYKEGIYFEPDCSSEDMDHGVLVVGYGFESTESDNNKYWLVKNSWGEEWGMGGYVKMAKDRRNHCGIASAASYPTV
Chain of Procathepsin L (P07711 whole entry): as the sequence (P07711 whole entry, looked up, one chain of several) above

Row | IC50 (Cathepsin K) | solubility thermodynamic [1] | Ratio [2] | IC50 (Pro-cathepsin H) | IC50 (Cathepsin S) | IC50 (Cathepsin B) | Ratio [3] | Ratio [4] | IC50 (Procathepsin L) | Vd [5] | clearance [6] | Papp A→B [7] | bioavailability [8] | half-life [9] | Ratio [10] | Ratio [11] | half-life [12] | half-life [13] | SMILES
1 | 710 nM | – | – | – | – | – | – | – | – | – | – | – | – | – | – | – | – | – | CCCC[C@H](NC(=O)OC1(Cc2ccccc2)CCC1)C(=O)C(=O)N[C@H](C)c1ccccc1
2 | 40 nM | 30 µg/mL (≈ 50.7 µM) | > 120 | > 5000 nM | 130 nM | > 5000 nM | > 120 | 3.2 | > 5000 nM | 0.42 L/kg | 9.6 mL/min/kg | 6.9 ×10⁻⁶ cm/s | 18% | 4.5 h | > 120 | – | – | – | CN(C)S(=O)(=O)NCCCC[C@H](NC(=O)OCC1(Cc2ccc(F)cc2)CCC1)C(=O)C(=O)NCc1cccnc1
3 | 25 nM | – | – | > 12000 nM | 430 nM | > 12000 nM | 120 | 17 | 3000 nM | – | – | – | – | – | – | > 480 | – | – | CCCC[C@H](NC(=O)OC1(Cc2ccccc2)CCCC1)C(=O)C(=O)N[C@H](C)c1ccccc1
4 | 24 nM | 20 µg/mL (≈ 34.9 µM) | – | – | – | – | – | – | – | 1.6 L/kg | 33 mL/min/kg | 14 ×10⁻⁶ cm/s | 15% | – | – | – | 1.57 h | – | CNC(=O)NCCCC[C@H](NC(=O)OCC1(Cc2c(F)cccc2F)CCC1)C(=O)C(=O)N[C@H](C)c1ccccc1
5 | 8.5 nM | – | – | > 5000 nM | 20 nM | 3600 nM | 150 | 2.4 | 1300 nM | – | – | – | – | – | > 580 | > 580 | – | – | CCCC[C@H](NC(=O)OCC1(Cc2ccccc2)CCC1)C(=O)C(=O)N[C@H](C)c1ccccc1
6 | 150 nM | – | – | – | – | – | – | – | – | – | – | – | – | – | – | – | – | – | CCCC[C@H](NC(=O)OC(CC)(CC)Cc1ccccc1)C(=O)C(=O)N[C@H](C)c1ccccc1
7 | 65 nM | – | – | > 5000 nM | 270 nM | 5000 nM | 46 | 4.2 | 3000 nM | – | – | – | – | – | – | > 77 | – | – | CCCC[C@H](NC(=O)OCC(C)(C)c1ccccc1)C(=O)C(=O)N[C@H](C)c1ccccc1
8 | 24 nM | – | – | > 2000 nM | 34 nM | > 2000 nM | 67 | 1.4 | 1600 nM | – | – | – | – | – | – | > 83 | – | – | CCCC[C@H](NC(=O)OCC1(CCc2ccccc2)CCC1)C(=O)C(=O)N[C@H](C)c1ccccc1
9 | 13 nM | 90 µg/mL (≈ 147 µM) | – | > 5000 nM | 27 nM | > 5000 nM | – | 2.1 | 680 nM | 4.2 L/kg | 43 mL/min/kg | 47 ×10⁻⁶ cm/s | 38% | – | – | – | – | 1.83 h | C[C@@H](NC(=O)C(=O)[C@H](CCCCNC(=O)N1CCOCC1)NC(=O)OCC1(Cc2ccc(F)cc2)CCC1)c1ccccc1
10 | 13 nM | – | – | > 5000 nM | 20 nM | > 5000 nM | 92 | 1.5 | 1200 nM | – | – | – | – | – | > 380 | > 380 | – | – | CCCC[C@H](NC(=O)OCC(C)(C)Cc1ccccc1)C(=O)C(=O)N[C@H](C)c1ccccc1
11 | 26 nM | – | – | > 5000 nM | 11 nM | > 5000 nM | 85 | 0.4 | 2200 nM | – | – | – | – | – | > 190 | > 190 | – | – | CCCC[C@H](NC(=O)OCC1(Cc2ccccc2)CCCC1)C(=O)C(=O)N[C@H](C)c1ccccc1
12 | 630 nM | – | – | – | – | – | – | – | – | – | – | – | – | – | – | – | – | – | CCCC[C@H](NC(=O)OC(C)(C)Cc1ccccc1)C(=O)C(=O)N[C@H](C)c1ccccc1
13 | 210 nM | – | – | – | – | – | – | – | – | – | – | – | – | – | – | – | – | – | CCCC[C@H](NC(=O)OC1(Cc2ccccc2)CCCCC1)C(=O)C(=O)N[C@H](C)c1ccccc1
14 | 7.6 nM | 300 µg/mL (≈ 505 µM) | – | – | – | – | – | – | – | 0.66 L/kg | 27 mL/min/kg | 1.4 ×10⁻⁶ cm/s | 8.1% | – | – | – | – | 1.23 h | C[C@@H](NC(=O)C(=O)[C@H](CCCCNC(=O)N1CCOCC1)NC(=O)OCC1(Cc2ccncc2)CCC1)c1ccccc1
15 | 0.83 nM | 150 µg/mL (≈ 337 µM) | 390 | > 500 nM | 5.2 nM | > 500 nM | > 600 | 6.3 | 330 nM | – | 45 mL/min/kg | 15 ×10⁻⁶ cm/s | 31% | – | > 600 | – | 2 h | – | CCCC[C@H](NC(=O)OCC1(Cc2ccc(F)cc2)CCC1)C(=O)C(=O)Nc1ccn[nH]1
16 | 17 nM | – | 76 | > 2000 nM | 17 nM | > 2000 nM | > 120 | 1 | 1300 nM | – | – | – | – | – | > 120 | – | – | – | CCCC[C@H](NC(=O)OCC1(CCCc2ccccc2)CCC1)C(=O)C(=O)N[C@H](C)c1ccccc1
